Measured values published in patent publication US20230117034A1, “PYRAZOLOTRIAZINES” (Bayer Aktiengesellschaft, priority 2019, published 2023).

Experiments:
CDK12/CycK = CDK12/CycK (Homo sapiens, UniProt Q9NYV4); assay: CDK12/CycK high ATP kinase assay (TR-FRET, 2 mM ATP); format: biochemical; settings: 2 mM ATP (high ATP); median; read-out: CDK12/CyclinK, 2 mM ATP (high ATP), IC50-[mol/l] (median)
Experimental: In the context of the present invention, the term “IC50 CDK12 hATP” refers to the IC50 values obtained according to the assay described in this section (2.2) herein below, i.e. the IC50 values for the inhibition of CDK12 at high (2 mM) ATP.
CDK12/CycK-inhibitory activity of compounds of the present invention at 2 millimol/L adenosine-tri-phosphate (ATP) was quantified employing the TR-FRET (TR-FRET=Time Resolved Fluorescence Energy Transfer) based CDK12/CycK activity inhibition assay as described in the following paragraphs.
A complex of human recombinant CDK12 and human recombinant CycK (both N-terminally His-tagged, expression and purification as described above) was used as enzyme. As substrate for the kinase reaction biotinylated peptide biotin-Ahx-KFELLPTPPLSPSRRSGL (C-terminus in amid form) was used which can be purchased e.g. form the company Biosyntan (Berlin-Buch, Germany).
For the assay 50 nanoL of a 100 fold concentrated solution of the test compound in DMSO was pipetted into either a black low volume 384 well microtiter plate or a black 1536 well microtiter plate (both Greiner Bio-One, Frickenhausen, Germany), 2 microL of a solution of CDK12/CycK in aqueous assay buffer [25 millimol/L HEPES pH 7.5, 20 millimol/L MgCl2, 5 millimol/L β-glycerophosphate, 2 millimol/L EGTA, 1.0 millimol/L dithiothreitol, 0.01% (v/v) Nonidet-P40 (Sigma), 0.01% (w/v) bovine serum albumin] were added and the mixture was incubated for 15 min at 22° C. to allow pre-binding of the test compounds to the enzyme before the start of the kinase reaction. Then the kinase reaction was started by the addition of 3 microL of a solution ATP (3.33 millimol/L=>final conc. in the 5 microL assay volume is 2 millimol/L) and substrate (1.67 micromol/L=>final conc. in the 5 microL assay volume is 1 micromol/L) in assay buffer and the resulting mixture was incubated for a reaction time of 60 min at 22° C. The concentration of CDK12/CycK was adjusted depending of the activity of the enzyme lot and was chosen appropriate to have the assay in the linear range, typical concentrations were about 0.75 nanomol/L. The reaction was stopped by the addition of 3 microL of a solution of TR-FRET detection reagents (125 nanomol/L streptavidine-XL665 [Cisbio Bioassays, Codolet, France] and 0.67 nanomol/L anti-Phospho-c-Myc (Ser 62) (E1J4K)-antibody from Cell Signalling [#13748] and 2 nanomol/L LANCE EU-W1024 labeled anti-rabbit IgG antibody [Perkin-Elmer, product no. 0083]) in an aqueous EDTA-solution (133 millimol/L EDTA, 0.27% (w/v) bovine serum albumin in 66.7 millimol/L HEPES pH 7.5).
The resulting mixture was incubated 1 h at 22° C. to allow the formation of complex between the phosphorylated biotinylated peptide and the detection reagents. Subsequently the amount of phosphorylated substrate was evaluated by measurement of the resonance energy transfer from the Eu-chelate to the streptavidine-XL. Therefore, the fluorescence emissions at 620 nm and 665 nm after excitation at 350 nm was measured in a TR-FRET reader, e.g. a Pherastar FS (BMG Labtechnologies, Offenburg, Germany) or a Viewlux (Perkin-Elmer). The ratio of the emissions at 665 nm and at […] was taken as the measure for the amount of phosphorylated substrate. The data were normalised (enzyme reaction without inhibitor=0% inhibition, all other assay components but no enzyme=100% inhibition).

[1] = test system: BRCA1 mRNA expression in MDA-MB-231 cells; assay: qRT-PCR assay: BRCA1 mRNA expression in MDA-MB-231; format: cell-based, human; settings: Homo sapiens, MDA-MB-231, Inhibition of BRCA1 mRNA expression in MDA-MB-231 cells; median; read-out: RTqPCR-MDA-MB-231, IC50, BRCA1 (median)
Experimental: 3. qRT-PCR Assay: BRCA, ATR, MCL1 in MDA-MB-231, CAL-120
Tissue cultured human MDA-MB-231 human breast cancer cells were plated in 500 microL per well at 200,000 cells/well in a 24 well microtiter plate. After 24 h, the cells were exposed continuously for 24 h to test substances (substances were added with Tecan HP 0300 Dispenser). RNA was prepared using Qiagen RNeasy MiniKit (#74106), RNA was quantified using a NanoDrop Equipment, and 600 nano gamms of RNA was coverted to cDNA using a SuperScript VILO kit (Thermofisher #11755050) followed by qPCR amplification. BRCA1 and ATR gene expression was measured by RT-qPCR and normalised to GAPDH housekeeping gene expression. qPCR primer sets have been purchased from Thermo Fisher Scientific/Applied Biosystems: BRCA1, #Hs 01556193; ATR, #Hs 00992123; GAPDH, #Hs 03929097.

CDK12/CycK, sequence (Q9NYV4 with tags, fused parts or gaps): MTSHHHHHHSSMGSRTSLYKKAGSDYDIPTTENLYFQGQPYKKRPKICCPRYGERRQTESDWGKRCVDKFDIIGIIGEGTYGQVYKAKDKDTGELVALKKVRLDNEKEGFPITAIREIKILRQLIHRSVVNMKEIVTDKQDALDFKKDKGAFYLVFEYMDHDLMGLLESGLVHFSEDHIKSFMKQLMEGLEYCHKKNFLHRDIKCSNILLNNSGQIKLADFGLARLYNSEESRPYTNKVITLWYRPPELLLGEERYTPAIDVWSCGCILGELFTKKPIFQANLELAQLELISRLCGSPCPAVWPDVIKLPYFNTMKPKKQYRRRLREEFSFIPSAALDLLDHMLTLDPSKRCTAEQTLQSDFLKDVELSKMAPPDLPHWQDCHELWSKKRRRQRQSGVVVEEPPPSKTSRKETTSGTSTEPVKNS
CDK12/CycK, sequence (O75909 1-300 partner limits assumed): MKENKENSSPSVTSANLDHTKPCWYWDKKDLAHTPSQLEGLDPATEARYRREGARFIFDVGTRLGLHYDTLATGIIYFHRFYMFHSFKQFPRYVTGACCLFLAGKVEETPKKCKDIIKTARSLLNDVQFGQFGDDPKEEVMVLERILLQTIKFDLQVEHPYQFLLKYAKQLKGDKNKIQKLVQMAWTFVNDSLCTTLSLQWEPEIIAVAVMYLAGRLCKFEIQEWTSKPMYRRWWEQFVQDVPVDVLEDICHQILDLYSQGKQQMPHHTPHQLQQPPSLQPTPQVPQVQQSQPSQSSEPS

| IC50 (CDK12/CycK) | IC50 [1] | SMILES |
| --- | --- | --- |
| > 20 µM | 30 nM | c1ccc(-c2cnn3c(NCc4nc5ccccc5[nH]4)nc(N4CCOCC4)nc23)cc1 [Example 104, N-[(1H-benzimidazol-2-yl)methyl]-2-(morpholin-4-yl)-8-phenylpyrazolo[1,5-a][1,3,5]triazin-4-amine] |
| > 9.99 µM | 32.2 nM | Fc1ccc(-c2cnn3c(NCc4nc5ccccc5[nH]4)nc(N4CCOCC4)nc23)cc1 [Example 106, N-[(1H-benzimidazol-2-yl)methyl]-8-(4-fluorophenyl)-2-(morpholin-4-yl)pyrazolo[1,5-a][1,3,5]triazin-4-amine] |
| > 20 µM | 151 nM | Clc1cccc(-c2cnn3c(NCc4nc5ccccc5[nH]4)nc(N4CCOCC4)nc23)c1 [Example 107, N-[(1H-benzimidazol-2-yl)methyl]-8-(3-chlorophenyl)-2-(morpholin-4-yl)pyrazolo[1,5-a][1,3,5]triazin-4-amine] |
| > 20 µM | 87.4 nM | c1cncc(-c2cnn3c(NCc4nc5ccccc5[nH]4)nc(N4CCOCC4)nc23)c1 [Example 108, N-[(1H-benzimidazol-2-yl)methyl]-2-(morpholin-4-yl)-8-(pyridin-3-yl)pyrazolo[1,5-a][1,3,5]triazin-4-amine] |
| 0.176 µM | 1.34 nM | C[C@@H]1CN(c2nc(NCc3nc4c(F)cccc4[nH]3)n3ncc(Br)c3n2)C[C@H](C)O1 [Example 109, 8-bromo-2-[(2R,6S)-2,6-dimethylmorpholin-4-yl]-N-[(4-fluoro-1H-benzimidazol-2-yl)methyl]pyrazolo[1,5-a][1,3,5]triazin-4-amine] |
| 0.405 µM | 7.51 nM | C[C@@H]1CN(c2nc(NCc3nc4cc(F)ccc4[nH]3)n3ncc(Br)c3n2)C[C@H](C)O1 [Example 110, 8-bromo-2-[(2R,6S)-2,6-dimethylmorpholin-4-yl]-N-[(5-fluoro-1H-benzimidazol-2-yl)methyl]pyrazolo[1,5-a][1,3,5]triazin-4-amine] |
| > 1.63 µM | 15.3 nM | c1ccc2[nH]c(CNc3nc(N4CCOCC4)nc4c(-c5ccncc5)cnn34)nc2c1 [Example 111, N-[(1H-benzimidazol-2-yl)methyl]-2-(morpholin-4-yl)-8-(pyridin-4-yl)pyrazolo[1,5-a][1,3,5]triazin-4-amine hydrogen chloride (1/1)] |
| 1.71 µM | 21.1 nM | NCCc1ccc2[nH]c(CNc3nc(N4CCOCC4)nc4c(Br)cnn34)nc2c1.O=CO [Example 113, formic acid-N-{[5-(2-aminoethyl)-1H-benzimidazol-2-yl]methyl}-8-bromo-2-(morpholin-4-yl)pyrazolo[1,5-a][1,3,5]triazin-4-amine (1/1)] |
| 6.73 µM | 123 nM | CCC1COCCN1c1nc(NCc2nc3ccccc3[nH]2)n2ncc(Br)c2n1 (stereo not shown) [Example 116, N-(1H-benzimidazol-2-ylmethyl)-8-bromo-2-(3-ethylmorpholin-4-yl)pyrazolo[1,5-a][1,3,5]triazin-4-amine] |
| 6.62 µM | 21.3 nM | Brc1cnn2c(NCc3nnc(-c4ccccc4)[nH]3)nc(N3CCNCC3)nc12.O=CO [Example 119, 8-bromo-N-[(5-phenyl-4H-1,2,4-triazol-3-yl)methyl]-2-piperazin-1-yl-pyrazolo[1,5-a][1,3,5]triazin-4-amine formate] |
| 13.2 µM | 30 nM | Brc1cnn2c(NCc3nnc(-c4ccccc4)[nH]3)nc(N3C[C@@H]4C[C@H]3CO4)nc12 [Example 120, 8-bromo-2-[(1S,4S)-2-oxa-5-azabicyclo[2.2.1]heptan-5-yl]-N-[(5-phenyl-4H-1,2,4-triazol-3-yl)methyl]pyrazolo[1,5-a][1,3,5]triazin-4-amine] |
| 7.47 µM | 344 nM | CN1CCN(c2nc(NCc3nnc(-c4ccccc4)[nH]3)n3ncc(Br)c3n2)CC1=O [Example 121, 4-(8-bromo-4-{[(5-phenyl-4H-1,2,4-triazol-3-yl)methyl]amino}pyrazolo[1,5-a][1,3,5]triazin-2-yl)-1-methylpiperazin-2-one] |

Second part, the compound before the results:

| SMILES | IC50 (CDK12/CycK) | IC50 [1] |
| --- | --- | --- |
| Fc1cc(-c2nnc(CNc3nc(N4CCOCC4)nc4c(Br)cnn34)[nH]2)cc(F)c1F [Example 100, 8-bromo-2-(morpholin-4-yl)-N-{[5-(3,4,5-trifluorophenyl)-4H-1,2,4-triazol-3-yl]methyl}pyrazolo[1,5-a][1,3,5]triazin-4-amine] | 1.24 µM | 62.2 nM |
| Fc1ccc2[nH]c(CNc3nc(N4CCOCC4)nc4c(Br)cnn34)nc2c1 [Example 101, 8-bromo-N-[(5-fluoro-1H-benzimidazol-2-yl)methyl]-2-(morpholin-4-yl)pyrazolo[1,5-a][1,3,5]triazin-4-amine] | 2.25 µM | 3.14 nM |
| Brc1cnn2c(NCc3nc4ccccc4[nH]3)nc(N3C[C@H]4C[C@@H]3CO4)nc12 [Example 102, N-[(1H-benzimidazol-2-yl)methyl]-8-bromo-2-[(1R,4R)-2-oxa-5-azabicyclo[2.2.1]heptan-5-yl]pyrazolo[1,5-a][1,3,5]triazin-4-amine] | 6.92 µM | 29.6 nM |
| Brc1cnn2c(NCc3nc4ccccc4[nH]3)nc(N3C[C@@H]4C[C@H]3CO4)nc12 [Example 103, N-[(1H-benzimidazol-2-yl)methyl]-8-bromo-2-[(1S,4S)-2-oxa-5-azabicyclo[2.2.1]heptan-5-yl]pyrazolo[1,5-a][1,3,5]triazin-4-amine] | 10.3 µM | 71.9 nM |
| Fc1cc(F)cc(-c2nnc(CNc3nc(N4CCOCC4)nc4c(Br)cnn34)[nH]2)c1 [Example 105, 8-bromo-N-{[5-(3,5-difluorophenyl)-4H-1,2,4-triazol-3-yl]methyl}-2-(morpholin-4-yl)pyrazolo[1,5-a][1,3,5]triazin-4-amine] | 1.07 µM | 8.43 nM |
| NCCc1cccc2[nH]c(CNc3nc(N4CCOCC4)nc4c(Br)cnn34)nc12 [Example 112, N-{[7-(2-aminoethyl)-1H-benzimidazol-2-yl]methyl}-8-bromo-2-(morpholin-4-yl)pyrazolo[1,5-a][1,3,5]triazin-4-amine] | 6.68 µM | 23.7 nM |
| Brc1cnn2c(NCc3nc4ccccc4[nH]3)nc(N3CCOCC3C3CC3)nc12 (stereo not shown) [Example 117, N-(1H-benzimidazol-2-ylmethyl)-8-bromo-2-(3-cyclopropylmorpholin-4-yl)pyrazolo[1,5-a][1,3,5]triazin-4-amine] | 4.82 µM | 121 nM |
| Brc1cnn2c(NCc3nnc(-c4ccccc4)[nH]3)nc(N3C[C@H]4C[C@@H]3CO4)nc12 [Example 118, 8-bromo-2-[(1R,4R)-2-oxa-5-azabicyclo[2.2.1]heptan-5-yl]-N-[(5-phenyl-4H-1,2,4-triazol-3-yl)methyl]pyrazolo[1,5-a][1,3,5]triazin-4-amine] | 5.7 µM | 26.1 nM |
